From PMC6112376, “Comprehensive Analyses and Prioritization of Tox21 10K Chemicals Affecting Mitochondrial Function by in-Depth Mechanistic Studies” (Environmental Health Perspectives, 2018)
Like-named read-outs stand apart in the source and are kept apart here.

Tests used:
[1] = system: isolated rat liver mitochondria; experiment: Oxygen consumption, Clark-type oxygen electrode; type: biochemical
HepG2 cells [2] = experiment: cells; conditions: Homo sapiens; for Emax: HepG2, read-out: MMP assays efficacy (%) HepG2
[3] = system: HeLa cells expressing YFP-Parkin; experiment: Parkin translocation assay; type: cell-based, human
[4] = system: p53 (p53-bla HCT-116 cells); experiment: p53 β-lactamase reporter gene assay; type: cell-based, human; conditions: 16 h incubation, mean±SD of three experiments
HepG2 cells [5] = experiment: Intracellular ATP content (cell viability) assay; type: cell-based, human; conditions: for IC50: Homo sapiens, HepG2, 40 h
hNSC = experiment: MMP assay in human neural stem cells (hNSC); type: cell-based; conditions: Homo sapiens, Neural stem cell, 1 h, read-out: hNSC IC50 (MMP)
[6] = system: Caenorhabditis elegans strain PE255; experiment: In vivo C. elegans ATP status assay; conditions: for minimal effective concentration: Caenorhabditis elegans, read-out: LEC LUM: lowest effect concentration for luminescence, a measure of nematode ATP content
HepG2 cells [7] = experiment: ROS-Glo hydrogen peroxide (ROS) assay; type: cell-based, human
HepG2 cells [8] = conditions: cited from earlier work
rat primary hepatocytes [9] = experiment: MMP assay in rat primary hepatocytes; conditions: Rattus norvegicus, Hepatocyte
rat primary hepatocytes [10] = system: rat primary hepatocytes
[11] = system: Caenorhabditis elegans (Bristol N2); experiment: C. elegans larval development and growth assay
[12] = system: Nrf2/ARE (ARE-bla HepG2 cells); experiment: ARE β-lactamase reporter gene assay; type: cell-based, human; conditions: Homo sapiens, HepG2; 16 h incubation; mean±SD of three experiments; read-out: ARE (HepG2) EC50
[13] = HepG2, 1 h, read-out: HepG2 IC50 Galactose (MMP)
[14] = HepG2, 1 h, read-out: HepG2 IC50 Glucose (MMP)
[15] = 1 h, read-out: Rat hepatocytes IC50 (MMP)
[16] = read-out: MMP assays IC50 (µM) Rat Hepatocytes

O=C(Nc1ccccc1)Nc1cnns1 [Thidiazuron]
Potential Mechanism [1]: Uncoupler
I-ADP, % of control (O2 consumption rate) ([1]; 0.16 µM): 93 (51.1) % of control
I-sub, % of control (O2 consumption rate) ([1]; 0.16 µM): 104 (13.6) % of control
II-ADP, % of control (O2 consumption rate) ([1]; 0.16 µM): 91 (80.1) % of control
II-sub, % of control (O2 consumption rate) ([1]; 0.16 µM): 100 (24.5) % of control
I-ADP, % of control (O2 consumption rate) ([1]; 0.8 µM): 74 (40.3) % of control
I-sub, % of control (O2 consumption rate) ([1]; 0.8 µM): 95 (12.4) % of control
II-ADP, % of control (O2 consumption rate) ([1]; 0.8 µM): 93 (82.2) % of control
II-sub, % of control (O2 consumption rate) ([1]; 0.8 µM): 106 (26.1) % of control
I-ADP, % of control (O2 consumption rate) ([1]; 4 µM): 87 (47.5) % of control
I-sub, % of control (O2 consumption rate) ([1]; 4 µM): 134 (17.5) % of control
II-ADP, % of control (O2 consumption rate) ([1]; 4 µM): 95 (83.6) % of control
II-sub, % of control (O2 consumption rate) ([1]; 4 µM): 119 (29.3) % of control
I-ADP, % of control (O2 consumption rate) ([1]; 20 µM): 99 (54.4) % of control
I-sub, % of control (O2 consumption rate) ([1]; 20 µM): 311 (40.8) % of control
II-ADP, % of control (O2 consumption rate) ([1]; 20 µM): 104 (92.1) % of control
II-sub, % of control (O2 consumption rate) ([1]; 20 µM): 269 (66.2) % of control
IC50 (HepG2 cells [2]; [13]): 14.6 µM
IC50 (HepG2 cells [2]; [14]): 12 µM
IC50 (HepG2 cells [2]; HepG2, read-out: MMP assays IC50 (µM) HepG2): 6.31 µM
Emax (HepG2 cells [2]): 104%
Parkin recruitment [3]: Inactive
p53 (HCT-116) EC50 [4]: Inactive
ATP (HepG2, galactose) IC50 (HepG2 cells [5]): Inactive
ATP (HepG2, glucose) IC50 (HepG2 cells [5]): Inactive
IC50 (hNSC): 8.39 µM
LUM: mean difference in luminescence (ATP content) relative to plate controls ([6]; 0.5 µM): 0.0432
LUM: mean difference in luminescence (ATP content) relative to plate controls ([6]; 1 µM): 0.1041
LUM: mean difference in luminescence (ATP content) relative to plate controls ([6]; 5 µM): 0.03776
LUM: mean difference in luminescence (ATP content) relative to plate controls ([6]; 10 µM): 0.1711
LUM: mean difference in luminescence (ATP content) relative to plate controls ([6]; 25 µM): 0.3608
LUM: mean difference in luminescence (ATP content) relative to plate controls ([6]; 50 µM): 0.588
LUM: mean difference in luminescence (ATP content) relative to plate controls ([6]; 75 µM): 0.6504
LUM: mean difference in luminescence (ATP content) relative to plate controls ([6]; 100 µM): 0.4761
effect on ATP content (in words) ([6]; 0.5–100μM): statistically significant decreases in ATP content
minimal effective concentration [6]: 50 µM
ROS (HepG2) EC50 (HepG2 cells [7]): Inactive
MMP assays efficacy (%) qHTS-HepG2 (HepG2 cells [8]): -126±9%
IC50 (HepG2 cells [8]; read-out: MMP assays IC50 (µM), qHTS-HepG2): 3.43 ± 0.73 µM
IC50 (rat primary hepatocytes [9]; [15]): 14.7 µM
IC50 (rat primary hepatocytes [9]; [16]): 4.56 ± 2.78 µM
MMP assays efficacy (%) Rat Hepatocytes (rat primary hepatocytes [10]): -136±46%
Rat hepatocytes (efficacy) (MMP) (rat primary hepatocytes [10]): 14.7±2.52 ( −98.5±15.2 ) %
EXT: mean difference in nematode size relative to plate controls ([11]; 0.5 µM): 0.1764
EXT: mean difference in nematode size relative to plate controls ([11]; 1 µM): 0.07124
EXT: mean difference in nematode size relative to plate controls ([11]; 5 µM): 0.08978
EXT: mean difference in nematode size relative to plate controls ([11]; 10 µM): 0.07446
EXT: mean difference in nematode size relative to plate controls ([11]; 25 µM): 0.09242
EXT: mean difference in nematode size relative to plate controls ([11]; 50 µM): 0.2069
EXT: mean difference in nematode size relative to plate controls ([11]; 75 µM): 0.07987
effect on larval growth (in words) ([11]; 0.5–100μM): did not affect growth
EC50 [12]: 27.3 ± 9.74 µM

N#CC(c1ccc(Cl)cc1)c1c(Cl)cc(-n2ncc(=O)[nH]c2=O)cc1Cl (centres unmarked) [Diclazuril, reference compound]
I-ADP, % of control (O2 consumption rate) ([1]; 0.16 µM, glutamate/malate driven state 3 respiration, isolated rat liver mitochondria): 96 (22.7) % of control
I-sub, % of control (O2 consumption rate) ([1]; 0.16 µM, glutamate/malate driven state 4 respiration, isolated rat liver mitochondria): 174 (24.7) % of control
II-ADP, % of control (O2 consumption rate) ([1]; 0.16 µM, succinate-driven state 3 respiration, isolated rat liver mitochondria): 99 (32.7) % of control
II-sub, % of control (O2 consumption rate) ([1]; 0.16 µM, succinate-driven state 4 respiration, isolated rat liver mitochondria): 168 (35.8) % of control
I-ADP, % of control (O2 consumption rate) ([1]; 0.8 µM, glutamate/malate driven state 3 respiration, isolated rat liver mitochondria): 95 (41.4) % of control
I-sub, % of control (O2 consumption rate) ([1]; 0.8 µM, glutamate/malate driven state 4 respiration, isolated rat liver mitochondria): 290 (38.0) % of control
II-ADP, % of control (O2 consumption rate) ([1]; 0.8 µM, succinate-driven state 3 respiration, isolated rat liver mitochondria): 88 (59.6) % of control
II-sub, % of control (O2 consumption rate) ([1]; 0.8 µM, succinate-driven state 4 respiration, isolated rat liver mitochondria): 263 (54.9) % of control
I-ADP, % of control (O2 consumption rate) ([1]; 4 µM, glutamate/malate driven state 3 respiration, isolated rat liver mitochondria): 45 (41.9) % of control
I-sub, % of control (O2 consumption rate) ([1]; 4 µM, glutamate/malate driven state 4 respiration, isolated rat liver mitochondria): 115 (22.8) % of control
II-ADP, % of control (O2 consumption rate) ([1]; 4 µM, succinate-driven state 3 respiration, isolated rat liver mitochondria): 55 (67.2) % of control
II-sub, % of control (O2 consumption rate) ([1]; 4 µM, succinate-driven state 4 respiration, isolated rat liver mitochondria): 103 (35.2) % of control
I-ADP, % of control (O2 consumption rate) ([1]; 20 µM, glutamate/malate driven state 3 respiration, isolated rat liver mitochondria): 95 (41.4) % of control
I-sub, % of control (O2 consumption rate) ([1]; 20 µM, glutamate/malate driven state 4 respiration, isolated rat liver mitochondria): 124 (16.3) % of control
II-ADP, % of control (O2 consumption rate) ([1]; 20 µM, succinate-driven state 3 respiration, isolated rat liver mitochondria): 101 (68.5) % of control
II-sub, % of control (O2 consumption rate) ([1]; 20 µM, succinate-driven state 4 respiration, isolated rat liver mitochondria): 127 (26.6) % of control
I-ADP, % of control (O2 consumption rate) ([1]; 100 µM, glutamate/malate driven state 3 respiration, isolated rat liver mitochondria): 94 (41.1) % of control
I-sub, % of control (O2 consumption rate) ([1]; 100 µM, glutamate/malate driven state 4 respiration, isolated rat liver mitochondria): 115 (15.1) % of control
II-ADP, % of control (O2 consumption rate) ([1]; 100 µM, succinate-driven state 3 respiration, isolated rat liver mitochondria): 101 (68.3) % of control
II-sub, % of control (O2 consumption rate) ([1]; 100 µM, succinate-driven state 4 respiration, isolated rat liver mitochondria): 114 (23.8) % of control
IC50 (HepG2 cells [2]; [13]): 46.3 µM
IC50 (HepG2 cells [2]; [14]): 38.3 µM
Emax (HepG2 cells [2]): 99%
Parkin recruitment [3]: Inactive
EC50 ([4]; Homo sapiens): 27.9 ± 6.48 µM
IC50 (HepG2 cells [5]; read-out: ATP (HepG2, galactose) IC50): 43.4 µM
IC50 (HepG2 cells [5]; read-out: ATP (HepG2, glucose) IC50): 50.4 µM
IC50 (hNSC): 20.6 µM
LEC (lowest effect concentration), ATP assay ([6]; 24 h exposure): < 10 µM
minimal effective concentration [6]: 5 µM
ROS (HepG2) EC50 (HepG2 cells [7]): Inactive
MMP assays efficacy (%) qHTS-HepG2 (HepG2 cells [8]): -108±7%
IC50 (HepG2 cells [8]; read-out: MMP assays IC50 (µM) qHTS-HepG2): 11.2 ± 2.79 µM
IC50 (rat primary hepatocytes [9]; [15]): 11.5 µM
IC50 (rat primary hepatocytes [9]; [16]): 5.7 ± 1.94 µM
MMP assays efficacy (%) Rat Hepatocytes (rat primary hepatocytes [10]): -114±26%
Rat hepatocytes (efficacy) (MMP) (rat primary hepatocytes [10]): 11.5±5.18 ( −72.8±2.37 ) %
LEC (lowest effect concentration), larval growth assay ([11]; 48 h exposure): < 10 µM
minimal effective concentration ([11]; Caenorhabditis elegans, read-out: LEC EXT: lowest effect concentration for extinction, a measure of nematode size): 2.5 µM
EC50 [12]: 10.9 µM
